Measured values reported in patent publication US20070275925A1, “ASTHMA DIAGNOSIS AND THERAPY” (REGENTS OF THE UNIVERSITY OF CALIFORNIA, priority 2006, published 2007).
“Also recorded” adds a separate entry of the source.

Assays:
Assay type in all cases: in vivo, human
[1] = Methacholine responsiveness (PC20) in the clinical trial; conditions: 4 and 8 weeks
Procedure: Protocol: This was a 6 visit, 10 week, randomized, double-blind, placebo-controlled trial specifically designed to determine the effects of inhaled fluticasone on airway gene expression and to relate those gene expression changes to improvements in lung function. After a one-week run-in/characterization period, subjects were randomized to receive 2 puffs BID of fluticasone propionate (250 μg/puff) or matching placebo for 8 weeks, followed by a one week run-out. Subjects were randomized in blocks designed to yield a greater number of subjects randomized to fluticasone as compared to placebo in order to maximize our ability to relate gene expression to lung function improvements within the intervention group. […] Spirometry was measured at baseline, before both bronchoscopies, at 4 and 8 weeks after starting study medication, and after the one week run-out according to American Thoracic Society criteria using a dry rolling-seal spirometer (Model VRS2000, PDS Instrumentation, S&M Instrument Co., Doylestown, Pa.). Methacholine responsiveness was measured at baseline and at 4 and 8 weeks after starting study medication using a five-breath dosimeter method (modified from Chai et al).^5

[2] = test system: airway epithelial brushings; experiment: Taqman / real-time PCR gene expression in airway epithelial brushings, fluticasone trial
Procedure: Brushings yielded 1,300,000±800,000 cells of which 97±3% were epithelial. For microarray analysis, […] total epithelial RNA was amplified using NuGen Ovation RNA amplification system. Then 2.75 μg sscDNA was hybridized to Affymetrix U133 plus 2.0 arrays (>54,000 probe sets coding for 38,500 genes). Array images were analyzed using Affymetrix GeneChip Expression Analysis Software. Bioconductor^5 was used for quality control (affyPLM algorithm), preprocessing (RMA algorithm), cluster analysis, and linear modeling.^5-7 Raw array data are available from the Gene Expression Omnibus public database (http://www.ncbi.nlm.nih.gov/geo/, accession number pending). Selected microarray findings were confirmed by real-time PCR, enzyme linked immunosorbent assay (ELISA) or immunohistochemistry. In vitro studies of the effects of interleukin-13 (IL-13) on expression of selected genes were performed using primary airway epithelial cells grown at an air-liquid interface (additional detail in supplementary appendix).
In further analysis of the same dataset we have identified six genes (Table 4) which are differentially expressed in airway epithelial brushings from asthmatics asthma or altered by corticosteroid treatment of asthmatic subjects and which have not previously been implicated in asthma or in the mechanism of steroid benefit in asthma.

[3] = Lung function (FEV1) in the clinical trial; conditions: by one week, sustained at 4 weeks and 8 weeks; inhaled fluticasone 500 μg twice daily
Procedure: In three cross sectional studies and a clinical trial, epithelial brushings were collected by bronchoscopy from 42 subjects with asthma, 16 current smokers without asthma, and 28 healthy controls. Cross-sectional studies comprised 2 visits, the first for characterization and the second for bronchoscopy. The clinical trial was a 10 week, randomized, double-blind, placebo-controlled trial specifically designed to determine the effects of inhaled fluticasone (500 μg twice daily) on airway gene expression and to relate gene expression changes to improvements in lung function (FIG. 1). Bronchoscopy was performed at baseline and repeated 1 week after starting study drug. Thirty-five subjects had adequate baseline bronchoscopy and 32 had RNA available from epithelial brushings at both bronchoscopies. Lung function was measured at intervals over the 8-week treatment period. […] Spirometry was measured at baseline, before both bronchoscopies, at 4 and 8 weeks after starting study medication, and after the one week run-out according to American Thoracic Society criteria using a dry rolling-seal spirometer (Model VRS2000, PDS Instrumentation, S&M Instrument Co., Doylestown, Pa.). Methacholine responsiveness was measured at baseline and at 4 and 8 weeks after starting study medication using a five-breath dosimeter method (modified from Chai et al).^5

serpinB2 protein = experiment: ELISA for serpinB2 protein levels in bronchoalveolar lavage; conditions: Post-fluticasone (follow-up bronchoscopy, 1 week)
Excerpt: Periostin and serpin B2 have not previously been associated with asthma, and we examined their expression at the protein level. […] However, in asthmatics, serpinB2 levels increased in all subjects at the second bronchoscopy (Table 4s, supplementary appendix). The increase in serpinB2 at the second bronchoscopy likely reflects a pro-coagulation response to the minor bleeding that accompanied bronchial biopsy during the first bronchosocopy. ELISA for serpinB2 protein levels in bronchoalveolar lavage fluid was performed using a commercially available kit (Imubind PAI-2 ELISA, American Diagnostica Inc, Stamford Conn.) according to the manufacturer's directions.

[4] = one week of treatment, n = 16, greater than one indicates suppression

## CCC(=O)O[C@]1(C(=O)SCF)[C@H](C)C[C@H]2[C@@H]3C[C@H](F)C4=CC(=O)C=C[C@]4(C)[C@@]3(F)[C@@H](O)C[C@@]21C [fluticasone, fluticasone propionate]
[1]
  PC20 methacholine improvements, fluticasone versus placebo: not statistically different; also recorded: no statistically significant differences
[2]; fluticasone arm as compared to the placebo arm
  CST1 reduction by taqman: 6 fold
[2]; [4]
  FLUTICASONE Change AVERAGE, CEACAM5 (ratio of gene expression before and after treatment): 1.88
  FLUTICASONE Change AVERAGE, CST1 (ratio of gene expression before and after treatment): 5.97
  FLUTICASONE Change AVERAGE, CST4 (ratio of gene expression before and after treatment): 5.41
  FLUTICASONE Change AVERAGE, HDAC9 (ratio of gene expression before and after treatment): 2.10
  FLUTICASONE Change AVERAGE, SERPINB1 (ratio of gene expression before and after treatment): 2.31
[3]
  Improvement in FEV1 versus placebo: greater improvements in FEV1 than placebo
serpinB2 protein
  SerpinB2 protein levels in bronchoalveolar lavage, Mean: 0.91 ng/mL
